Test results: patent US11541033B2, “Agent for preventing or treating Alzheimer's disease” (FUJIFILM Toyama Chemical Co., Ltd., priority 2017, dated 2023)

Columns and labels:
Format in all cases: in vivo, human
[1] = test system: mild to moderate AD patients; assay: Test Example 2: early phase II placebo-controlled trial, ADCS-ADL change from baseline; details: for Change in ADCS-ADL from baseline at week 52, least square means (95% confidence interval) / Change in ADCS-ADL from baseline at week 52, difference from placebo group (95% confidence interval): MMSE 22 or less at screening
From the text: (§1) Test Example 2 Multicenter Randomized Double-Blind Early Phase II Placebo-Controlled Trial for Assessing Effectiveness and Safety of Compound a in Mild to Moderate AD Patients
(§2) Patients were screened in a period from 28 days before treatment assignment to the assignment based on the following selection criteria. Patients matched (373 patients) were randomly divided into the following 2 groups and the trial was started.
(§3) • Patients who were probable AD and over or 50 years old or older and 90 years old or younger at the time of obtaining consent of screening. • Patients with an MMSE score of 15 to 24 at the time of screening • Patients with a Modified Hachinski Ischemia Scale score of 4 or less • Patients who have been treated with a donepezil hydrochloride for at least 6 months before the baseline and with a stable dose thereof for 3 months before the baseline. • Patients whose brain MRI or CT results match AD at the time of screening Organization of Groups: (1) Active drug group: 224 mg of a test compound (160 mg in terms of Compound A) was orally administered once a day for 52 weeks (176 patients) (2) Placebo group: placebo was orally administered once a day for 52 weeks (178 patients) Method of assessment: (1) ADAS-cog
(§4) The ADCS-ADL score of the subject was evaluated at the baseline (before administration of investigational drug on the first day of administration) and after 52 weeks and the level of impairment was assessed based on the change from the baseline.
(§5) Changes in the ADAS-cog score and the ADCS-ADL score after 52 weeks from the baseline were compared between the high dose group and the placebo group, and between the low dose group and the placebo group based on MMRM with a significance level of 5%. For models, fixed effects included the treatment groups and time, while covariates included the baseline of ADAS-cog or ADCS-ADL and the baseline of MMSE. The interaction between time and the treatment groups and the interaction between the baseline of ADAS-cog and time were also included. For the period from clinical diagnosis, the first day of administration of donepezil hydrochloride which was combined with Compound A was defined as the time of clinical diagnosis. Furthermore, to match the conditions with those of Test Example 1, the subject was patients with an MMSE score of 22 or less at the time of screening.

[2] = test system: mild to moderate AD patients; assay: Test Example 2: early phase II placebo-controlled trial, ADAS-cog change from baseline; details: for Change in ADAS-cog from baseline at week 52, least square means (95% confidence interval) / Change in ADAS-cog from baseline at week 52, difference from placebo group (95% confidence interval): MMSE 22 or less at screening
From the text: as §1, §2, §3
(§6) The ADAS-cog score of the subject was evaluated at the baseline (before administration of investigational drug on the first day of administration) and after 52 weeks and the cognitive function was assessed based on the change from the baseline.
as §5

[3] = test system: mild to moderate AD patients; assay: Test Example 1: phase II placebo-controlled trial, ADAS-cog change from baseline
From the text: (§7) Test Example 1 Multicenter Randomized Double-Blind Phase II Placebo-Controlled Trial for Assessing Effectiveness and Safety of Compound a in Mild to Moderate AD Patients
(§8) Patients were screened in a period from 42 days before treatment assignment to the assignment based on the following selection criteria. Patients matched (484 patients) were randomly divided into the following 3 groups and the trial was started.
(§9) • Patients who were probable AD and are 55 years old or older and 85 years old or younger at the time of obtaining consent of screening. • Patients with an MMSE score of 12 to 22 at the time of screening • Patients with a Modified Hachinski Ischemia Scale score of 4 or less • Patients who have been treated with a donepezil hydrochloride or rivastigmine transdermal system for at least 4 months before the baseline and with a stable dose thereof for 3 months before the baseline. • In the case of patients who have received memantine in addition to being treated with a donepezil hydrochloride or rivastigmine transdermal system, patients who have been treated with memantine for at least 4 months before the baseline and with a stable dose thereof for 3 months before the baseline. • Patients whose brain MRI or CT results match AD at the time of screening Organization of Groups: (1) High dose group: 224 mg of a test compound (160 mg in terms of Compound A) was orally administered once a day for 4 weeks and then 448 mg of a test compound (320 mg in terms of Compound A) was orally administered once a day for 48 weeks (158 patients) (2) Low dose group: 224 mg of a test compound (160 mg in terms of Compound A) was orally administered once a day for 52 weeks (166 patients) (3) Placebo group: placebo was orally administered once a day for 52 weeks (158 patients) Method of assessment: (1) ADAS-cog
as §6
(§10) Changes in the ADAS-cog score and the ADCS-ADL score after 52 weeks from the baseline were compared between the high dose group and the placebo group, and between the low dose group and the placebo group based on the Mixed-effect Models for Repeated Measures (MMRM) with a significance level of 5%. For models, fixed effects included the treatment groups and time, while covariates included age, the baseline of ADAS-cog or ADCS-ADL, the baseline of MMSE and ApoE4 genotype (positive/negative). The interaction between time and the treatment groups and the interaction between the baseline of ADAS-cog and time were also included.

[4] = test system: mild to moderate AD patients; assay: Test Example 1: phase II placebo-controlled trial, ADCS-ADL change from baseline
From the text: as §7, §8, §9, §4, §10

[5] = low dose group (160 mg in terms of Compound A, oral once a day, 52 weeks), within 2.6 years from clinical diagnosis
[6] = low dose group (160 mg), more than 2.6 years from clinical diagnosis
[7] = low dose group (160 mg), total (all periods)
[8] = low dose group (160 mg), within 2.6 years from clinical diagnosis
[9] = high dose group, more than 2.6 years from clinical diagnosis
[10] = high dose group, within 2.8 years from clinical diagnosis
[11] = high dose group, within 3 years from clinical diagnosis
[12] = high dose group, within 3.2 years from clinical diagnosis
[13] = high dose group, within 3.4 years from clinical diagnosis
[14] = high dose group, within 3.6 years from clinical diagnosis
[15] = high dose group, within 3.8 years from clinical diagnosis
[16] = high dose group, within 4.0 years from clinical diagnosis
[17] = high dose group, within 5.0 years from clinical diagnosis
[18] = high dose group, within 6.0 years from clinical diagnosis
[19] = low dose group (160 mg), total (all periods from clinical diagnosis)
[20] = high dose group, total (all periods from clinical diagnosis)

## OC1CN(CCCOCCc2ccc3sccc3c2)C1 [Compound A, 1-(3-(2-(1-benzothiophen-5-yl)ethoxy)propyl)azetidin-3-ol]
[1]; Test Example 2, low dose group (160 mg)
  Reduction in ADCS-ADL from the baseline at week 52 (in words): tended to be suppressed
[1]; Test Example 2, low dose group (160 mg), week 52
  Tendency to suppress reduction in ADCS-ADL, patients within 2.6 years versus all patients (in words): more remarkable
[1]; [5]
  Change in ADCS-ADL from baseline at week 52, least square means (95% confidence interval): −5.5(−7.8, −3.2)
[1]; [6]
  Change in ADCS-ADL from baseline at week 52, difference from placebo group (95% confidence interval): −3.5(−7.8, 0.8)
  Change in ADCS-ADL from baseline at week 52, least square means (95% confidence interval): −7.5(−10.8, −4.3)
[1]; [7]
  Change in ADCS-ADL from baseline at week 52, difference from placebo group (95% confidence interval): 0.5(−2.0, 3.0)
  Change in ADCS-ADL from baseline at week 52, least square means (95% confidence interval): −6.2(−8,1, −4.3)
[1]; [8]
  Change in ADCS-ADL from baseline at week 52, difference from placebo group (95% confidence interval): 2.6(−0.5, 5.7)
[2]; Test Example 2, all subject patients
  Changes in ADAS-cog from the baseline at week 52, Compound A group versus placebo group (in words): no statistically significant difference
[2]; Test Example 2, low dose group (160 mg), within 2.6 years from clinical diagnosis of AD and MMSE score of 22 or less at screening
  Changes in ADAS-cog from the baseline at week 52, Compound A low dose group versus placebo group (in words): statistically significant difference
[2]; [5]
  Change in ADAS-cog from baseline at week 52, least square means (95% confidence interval): 1.3(−0.3, 4.7)
[2]; [6]
  Change in ADAS-cog from baseline at week 52, difference from placebo group (95% confidence interval): 1.7(−1.3, 4.7)
  Change in ADAS-cog from baseline at week 52, least square means (95% confidence interval): 3.0(0.8, 5.3)
[2]; [7]
  Change in ADAS-cog from baseline at week 52, difference from placebo group (95% confidence interval): −1.2(−3.0, 0.5)
  Change in ADAS-cog from baseline at week 52, least square means (95% confidence interval): 1.9(0.5, 3.2)
[2]; [8]
  Change in ADAS-cog from baseline at week 52, difference from placebo group (95% confidence interval): −2.6(−4.8, −0.5)
[3]; Test Example 1, all subject patients
  Changes in ADAS-cog from the baseline at week 52, Compound A group versus placebo group (in words): no statistically significant difference
[3]; Test Example 1, high dose group, patients within 2.6 years from clinical diagnosis of AD
  Changes in ADAS-cog from the baseline at week 52, Compound A high dose group versus placebo group (in words): statistically significant difference
[3]; Test Example 1, high dose group, periods 2.5 to 6 years from clinical diagnosis of AD
  Difference in ADAS-cog change between high dose group and placebo group, compared by periods from clinical diagnosis (in words): larger in patients whose period was shorter
[3]; Test Example 1, low dose group (160 mg), week 52
  Change in the ADAS-cog score, Compound A low dose group versus placebo group (in words): tended to be smaller than that in the placebo group
[3]; high dose group (160 mg 4 weeks then 320 mg 48 weeks in terms of Compound A, oral once a day), within 2.5 years from clinical diagnosis
  Change in ADAS-cog from baseline at week 52, least square means (95% confidence interval): 5.6
[3]; high dose group (160 mg 4 weeks then 320 mg 48 weeks, oral once a day), within 2.5 years from clinical diagnosis
  Change in ADAS-cog from baseline at week 52, difference from placebo group (95% confidence interval): −3.3
[3]; [9]
  Change in ADAS-cog from baseline at week 52, difference from placebo group (95% confidence interval): 1.8(−1.0, 4.6)
  Change in ADAS-cog from baseline at week 52, least square means (95% confidence interval): 8.4(6.3, 10.5)
[3]; [10]
  Change in ADAS-cog from baseline at week 52, difference from placebo group (95% confidence interval): −2.5
  Change in ADAS-cog from baseline at week 52, least square means (95% confidence interval): 6.2
[3]; [11]
  Change in ADAS-cog from baseline at week 52, difference from placebo group (95% confidence interval): −2.2
  Change in ADAS-cog from baseline at week 52, least square means (95% confidence interval): 6.1
[3]; [12]
  Change in ADAS-cog from baseline at week 52, difference from placebo group (95% confidence interval): −2.0
  Change in ADAS-cog from baseline at week 52, least square means (95% confidence interval): 6.4
[3]; [13]
  Change in ADAS-cog from baseline at week 52, difference from placebo group (95% confidence interval): −1.8
  Change in ADAS-cog from baseline at week 52, least square means (95% confidence interval): 6.4
[3]; [14]
  Change in ADAS-cog from baseline at week 52, difference from placebo group (95% confidence interval): −1.8
  Change in ADAS-cog from baseline at week 52, least square means (95% confidence interval): 6.7
[3]; [15]
  Change in ADAS-cog from baseline at week 52, difference from placebo group (95% confidence interval): −2.1
  Change in ADAS-cog from baseline at week 52, least square means (95% confidence interval): 6.5
[3]; [16]
  Change in ADAS-cog from baseline at week 52, difference from placebo group (95% confidence interval): −1.7
  Change in ADAS-cog from baseline at week 52, least square means (95% confidence interval): 6.6
[3]; [17]
  Change in ADAS-cog from baseline at week 52, difference from placebo group (95% confidence interval): −1.9
  Change in ADAS-cog from baseline at week 52, least square means (95% confidence interval): 6.5
[3]; [18]
  Change in ADAS-cog from baseline at week 52, difference from placebo group (95% confidence interval): −0.9
  Change in ADAS-cog from baseline at week 52, least square means (95% confidence interval): 7.2
[3]; [5]
  Change in ADAS-cog from baseline at week 52, least square means (95% confidence interval): 8.1 (6.0, 10.2)
[3]; [6]
  Change in ADAS-cog from baseline at week 52, difference from placebo group (95% confidence interval): 0.1 (−2.5, 2.8)
  Change in ADAS-cog from baseline at week 52, least square means (95% confidence interval): 6.8 (4.8, 8.7)
[3]; [19]
  Change in ADAS-cog from baseline at week 52, difference from placebo group (95% confidence interval): −0.5 (−2.4, 1.4)
  Change in ADAS-cog from baseline at week 52, least square means (95% confidence interval): 7.4 (6.0, 8.9)
[3]; [8]
  Change in ADAS-cog from baseline at week 52, difference from placebo group (95% confidence interval): −0.9 (−3.6, 1.8)
[4]; Test Example 1, high dose group
  Reduction in ADCS-ADL from the baseline at week 52 (in words): tended to be suppressed
[4]; Test Example 1, high dose group, week 52
  Tendency to suppress reduction in ADCS-ADL, patients within 2.6 years versus all patients (in words): more remarkable
[4]; high dose group (160 mg 4 weeks then 320 mg 48 weeks, oral once a day), within 2.6 years from clinical diagnosis
  Change in ADCS-ADL from baseline at week 52, least square means (95% confidence interval): −8.6(−11.2, −5.9)
[4]; [9]
  Change in ADCS-ADL from baseline at week 52, difference from placebo group (95% confidence interval): −0.9 (−4.7, 2.8)
  Change in ADCS-ADL from baseline at week 52, least square means (95% confidence interval): −11.6(−14.5, −8.8)
[4]; [20]
  Change in ADCS-ADL from baseline at week 52, difference from placebo group (95% confidence interval): 1.2(−1.3, 3.8)
  Change in ADCS-ADL from baseline at week 52, least square means (95% confidence interval): −10.1(−12.0, −8.1)
[4]; high dose group, within 2.6 years from clinical diagnosis
  Change in ADCS-ADL from baseline at week 52, difference from placebo group (95% confidence interval): 3.1(−0.4, 6.6)
[4]; [5]
  Change in ADCS-ADL from baseline at week 52, least square means (95% confidence interval): −11.7(−14.5, −9.0)
[4]; [6]
  Change in ADCS-ADL from baseline at week 52, difference from placebo group (95% confidence interval): 0.3(−3.2, 3.8)
  Change in ADCS-ADL from baseline at week 52, least square means (95% confidence interval): −10.4(−13.0, −7.8)
[4]; [19]
  Change in ADCS-ADL from baseline at week 52, difference from placebo group (95% confidence interval): 0.2(−2.3, 2.7)
  Change in ADCS-ADL from baseline at week 52, least square means (95% confidence interval): −11.0(−13.0, −9.1)
[4]; [8]
  Change in ADCS-ADL from baseline at week 52, difference from placebo group (95% confidence interval): 0.0(−3.6, 3.6)
